# Experiments:
# Format in all cases: cell-based
# [1] = system: P.aeruginosa in the biofilm; test: Antibacterial activity against cells immersed in a biofilm matrix (CFU, drop plate); conditions: 24 hours
# Procedure: To determine the effectiveness of the antibiotic against bacteria in […], bacteria were grown in Basal medium for 3 days at a temperature of 37° C. without swinging to obtain a dense biofilm [A. R Kayumov, Khakimullina E., Sharafutdinov I, Trizna E., Latypova L., Lien Thi, Margulis A., Bogachev M, Kurbangalieva A. Inhibition of biofilm formation in Bacillus subtilis by new halogenated furanoses. J. Antibiotics.—2014.—V. 68.—No 5.—P. 297-301.]. Then the biofilm was washed with a sterile 0.9% NaCl solution and fresh sterile medium was poured. Antiseptics were added to concentrations (1-16)×MBC (minimum bactericidal concentration) and incubated for 24 hours. Then the culture fluid was removed from the wells, washed once with 0.9% NaCl solution to remove non-adherent cells, and cell viability in biofilms was evaluated by counting CFU by Drop plate analysis [B. Herigstad, M Hamilton, J. Heersink How to optimize the drop plate method for enumerating bacteria. J Microbiol Methods.—2001.—V. 44.—P. 121-129]. To do this, the biofilm was mechanically removed from the surface and homogenized in 0.9% NaCl by pipetting and ultrasonic treatment. Then, serial 10-fold dilutions of the bacterial suspension in 0.9% NaCl were prepared, and 5 μI of each suspension were transferred to plates with dense nutrient medium. CFU was counted from drops containing 5-10 colonies.
# The results of the study of antimicrobial activity against cells of the studied strains immersed in the biofilm matrix, in comparison with miramistin and benzalkonium chloride, are presented in FIGS. 1 and 2.
# [2] = system: Escherichia coli CDC F-50; test: Disinfectant activity in suspension test
# Procedure: (§1) To prepare a bacterial suspension of the culture, microorganisms grown in dense nutrient medium for (18-24) hours were washed off with a sterile isotonic sodium chloride solution. The bacterial suspension of each microorganism was brought to a turbidity corresponding to a concentration of 1×10^9 cells/ml, which corresponds to 3 units of McFarland. For experiments with protein loading, a solution of bovine serum albumin (BSA) was added to the bacterial suspension to a final concentration of 0.2%.
# (§2) Solutions of compound I, miramistin, and benzalkonium chloride were poured at a working concentration (0.1%, 0.2%) into a 24-well plate of 0.9 ml per well: 0.1 ml of microbial suspension was added to wells with disinfectant solutions and mixed by shaking for several seconds.
# (§3) At the end of 1, 5, and 15 minutes of exposure, 0.5 ml of a universal neutralizer was added and mixed by shaking to deactivate the drugs and stop their antimicrobial activity. The neutralizer consisted of tween-80 (Sigma-Aldrich)—3.0 ml, saponin (DIAEM)—3.0 g, histidine—0.1 g, cysteine—0.1 g in 100 ml of phosphate-buffered solution.
# (§4) The liquid was inoculated on a dense nutrient medium (Müller-Hinton agar) in 0.1 ml of the mixture, cultivation was carried out (24-48) hours at 37° C. Müller-Hinton broth was prepared from dry media (Mueller Hinton broth, Acumedia, Baltimore), cultivation was carried out on agarized Müller-Hinton broth, which included an additional 2% of agar. The media were autoclaved at 121° C. for 15 minutes.
# (§5) After the time required for the cultivation of microorganisms, the results were counted according to the number of colonies grown on the Petri dish. In the absence of growth, the time for culturing microorganisms was increased by a factor of 2 (for example, when the cultivation time was 24 hours, it was left in the thermostat for up to 2 days). The experiment was carried out three times under the same conditions.
# (§6) The criterion of efficacy of drugs in suspension is the death of 100% test microorganisms, with a duration of action not more than 30 minutes.
# [3] = system: Staphylococcus aureus ATCC 209p; test: Disinfectant activity in suspension test
# Procedure: as §1, §2, §3, §4, §5, §6
# [4] = 0.1% solution, exposure 1 min, +BSA
# [5] = 0.1% solution, exposure 1 min, −BSA
# [6] = 0.1% solution, exposure 5 min, +BSA
# [7] = 0.1% solution, exposure 5 min, −BSA
# [8] = 0.1% solution, exposure 15 min, +BSA
# [9] = 0.1% solution, exposure 15 min, −BSA
# [10] = 0.2% solution, exposure 1 min, +BSA
# [11] = 0.2% solution, exposure 1 min, −BSA
# [12] = 0.2% solution, exposure 5 min, +BSA
# [13] = 0.2% solution, exposure 5 min, −BSA
# [14] = 0.2% solution, exposure 15 min, −BSA
smiles,measurement,setting,value
"CCCCCCCCCCCCCC(=O)NCCC[N+](C)(C)Cc1ccccc1.O.[Cl-] [Miramistin, benzyldimethyl [3-(myristoylamino)propyl]-ammonium chloride monohydrate]",excess of MBC giving a decrease in the number of CFU by 3 orders of magnitude,[1],16 times
same,Inhibition rate (M ± SD) of Escherichia coli CDC F-50 growth,[2]; [4],99.98 ± 0.005%
same,Inhibition rate (M ± SD) of Escherichia coli CDC F-50 growth,[2]; [5],99.99%
same,Inhibition rate (M ± SD) of Escherichia coli CDC F-50 growth,[2]; [6],99.99%
same,Inhibition rate (M ± SD) of Escherichia coli CDC F-50 growth,[2]; [7],99.99 ± 0.005%
same,Inhibition rate (M ± SD) of Escherichia coli CDC F-50 growth,[2]; [8],99.99 ± 0.005%
same,Inhibition rate (M ± SD) of Escherichia coli CDC F-50 growth,[2]; [9],100%
same,Inhibition rate (M ± SD) of Escherichia coli CDC F-50 growth,[2]; [10],99.99%
same,Inhibition rate (M ± SD) of Escherichia coli CDC F-50 growth,[2]; [11],99.99%
same,Inhibition rate (M ± SD) of Escherichia coli CDC F-50 growth,[2]; [12],99.99%
same,Inhibition rate (M ± SD) of Escherichia coli CDC F-50 growth,[2]; [13],99.99 ± 0.005%
same,Inhibition rate (M ± SD) of Escherichia coli CDC F-50 growth,"[2]; 0.2% solution, exposure 15 min, +BSA",100%
same,Inhibition rate (M ± SD) of Escherichia coli CDC F-50 growth,[2]; [14],100%
same,Inhibition rate (M ± SD) Staphylococcus aureus ATCC 209p,[3]; [4],99.99%
same,Inhibition rate (M ± SD) Staphylococcus aureus ATCC 209p,[3]; [5],99.9%
same,Inhibition rate (M ± SD) Staphylococcus aureus ATCC 209p,[3]; [6],99.99%
same,Inhibition rate (M ± SD) Staphylococcus aureus ATCC 209p,[3]; [7],99.99%
same,Inhibition rate (M ± SD) Staphylococcus aureus ATCC 209p,[3]; [8],99.99 ± 0.005%
same,Inhibition rate (M ± SD) Staphylococcus aureus ATCC 209p,[3]; [9],99.99%
same,Inhibition rate (M ± SD) Staphylococcus aureus ATCC 209p,[3]; [10],99.99%
same,Inhibition rate (M ± SD) Staphylococcus aureus ATCC 209p,[3]; [11],99.9%
same,Inhibition rate (M ± SD) Staphylococcus aureus ATCC 209p,[3]; [12],99.99 ± 0.005%
same,Inhibition rate (M ± SD) Staphylococcus aureus ATCC 209p,[3]; [13],99.99%
same,Inhibition rate (M ± SD) Staphylococcus aureus ATCC 209p,"[3]; 0.2% solution, exposure 15 min, +BSA, listed as miramistin, monohydrate",< 100%
same,Inhibition rate (M ± SD) Staphylococcus aureus ATCC 209p,"[3]; 0.2% solution, exposure 15 min, +BSA, monohydrate",99.99 ± 0.005%
same,Inhibition rate (M ± SD) Staphylococcus aureus ATCC 209p,[3]; [14],100%

# Source: patent US11014934B2, “Antiseptic drug” (AO “TATKHIMFARMPREPARATY”, priority 2017, dated 2021)
